Test systems include SNB-78 CNS; DMS 114 small cell lung; LXFL 529 NSCLC; DLD-1 colon; RXF-631 renal; MDA-N; HS 578T breast; PC-3 prostate; T-47D breast.
Test in all cases: inhibition of tumour cell growth, NCI panel, 48 h

Where “and” joins values, the source holds several entries; their conditions need not be identical. Equal values may be shown once.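 Protocol summary: plate cells (96-well), add compound at 5 concentrations, incubate 48 h, interpolate endpoints linearly. Here, GI50 denotes the concentration required for 50% inhibition of growth. Definition used: TGI = concentration required for complete inhibition of growth.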

Consider `CC(=O)Nc1[nH]c(=O)[nH]c(=O)c1N(C(C)=O)C(C)=O`, for which the TGI in the assay with SNB-78 CNS, with DMS 114 small cell lung, in the assay on LXFL 529 NSCLC and in the assay on DLD-1 colon was greater than 100 µM throughout.

Turning to `Clc1ccc(CCN2CCOCC2)c(Cl)c1`, the TGI with SNB-78 CNS, in the assay with DMS 114 small cell lung, in the assay with RXF-631 renal and in the assay with DLD-1 colon was greater than 100 µM in each case.

In the case of `CCCC/C(C)=N/NC(N)=S`, the TGI in the assay with SNB-78 CNS, with DMS 114 small cell lung, with LXFL 529 NSCLC and in the assay with DLD-1 colon was greater than 100 µM each time.

Consider `CCCCCCCCSC(SCCCCCCCC)=C1C(=O)N(c2ccccc2)N=C1C`, for which the TGI was greater than 100 µM in the assay on SNB-78 CNS; 63.3 µM in the assay on DMS 114 small cell lung; greater than 100 µM with LXFL 529 NSCLC; greater than 100 µM in the assay with RXF-631 renal; 50 µM with DLD-1 colon.

Turning to `C[P+](C)(CC(F)(F)F)c1ccccc1`, the TGI in the assay with SNB-78 CNS, with DMS 114 small cell lung, in the assay with LXFL 529 NSCLC and with DLD-1 colon was greater than 100 µM in each case.

As for `Nc1nc(Cl)cc(NCCCCCCCCCCNc2cc(Cl)nc(N)n2)n1`, the TGI in the assay with SNB-78 CNS is greater than 100 µM; in the assay on LXFL 529 NSCLC, greater than 100 µM; in the assay with RXF-631 renal, 40.3 µM; in the assay on DLD-1 colon, greater than 100 µM.

With `N#CC(/C(=N\NC(N)=S)C(=O)NC1C2CC3CC(C2)CC1C3)c1ccc(Cl)cc1` (centres undefined), the TGI in the assay with SNB-78 CNS, in the assay on DMS 114 small cell lung, in the assay on LXFL 529 NSCLC, with RXF-631 renal and in the assay on DLD-1 colon was greater than 100 µM in each case.

On to `Cc1cc(Br)cc(C)c1NC(=O)C(=O)C(C(=O)c1ccc(Cl)c(Cl)c1)C1OC(=O)c2ccccc21` (centres undefined), for which the TGI in the assay with SNB-78 CNS was greater than 100 µM; in the assay with DMS 114 small cell lung, greater than 100 µM; with LXFL 529 NSCLC, greater than 100 µM; in the assay with RXF-631 renal it was greater than 100 µM; in the assay on DLD-1 colon, 51.2 µM.

With `c1ccc(CN(Cc2ccccn2)Cn2cccn2)nc1`, the TGI was greater than 100 µM with SNB-78 CNS, 54.6 µM with DMS 114 small cell lung, greater than 100 µM with RXF-631 renal and greater than 100 µM with DLD-1 colon.

Take `Cc1ccc(NC(=O)NC23CC4CC(CC(F)(C4)C2)C3)cc1`: the TGI in the assay on SNB-78 CNS, in the assay on DMS 114 small cell lung, in the assay on LXFL 529 NSCLC and in the assay with DLD-1 colon was greater than 100 µM each time.

Regarding `Cc1ccc(C)c2sc3cc(=O)ccc-3nc12`, the TGI in the assay on SNB-78 CNS, with DMS 114 small cell lung, with LXFL 529 NSCLC, in the assay on RXF-631 renal and in the assay with DLD-1 colon was greater than 100 µM in each case.

For `CC1=C[C@H]2C[C@@]3(C)O[C@@H]([C@]4(C)CC[C@H]([C@@H](C)C(=O)O)OO4)CC3C(C)(C)[C@H]2CC1` (some centres undefined), the TGI in the assay on SNB-78 CNS came to 2.78 µM; with DMS 114 small cell lung, 3.32 µM; in the assay on LXFL 529 NSCLC, 1.9 µM; in the assay on DLD-1 colon it was 2.47 µM.

For the molecule `C(=C1/CCCCC([n+]2ccccc2)=N1)/c1ccccc1`, the TGI with SNB-78 CNS, in the assay with DMS 114 small cell lung, in the assay with LXFL 529 NSCLC and with DLD-1 colon was greater than 100 µM each time.

`COc1ccc2c(c1)[n+]([O-])c(-c1ccc(Cl)c(Cl)c1)c(N)[n+]2[O-]`: the TGI with SNB-78 CNS is greater than 100 µM; in the assay with DMS 114 small cell lung, 32.1 µM; with LXFL 529 NSCLC it was greater than 100 µM; with RXF-631 renal, 82.3 µM; in the assay on DLD-1 colon, greater than 100 µM.

As to `COc1ccc(-c2nc(N)nc(-c3cc(C)ccc3O)c2Cl)cc1`, the TGI with SNB-78 CNS was 81.9 µM; in the assay with DMS 114 small cell lung, greater than 100 µM; in the assay with LXFL 529 NSCLC it was greater than 100 µM; with RXF-631 renal it was greater than 100 µM; in the assay with DLD-1 colon, greater than 100 µM.

`Cc1ccc(C)c(NC(=O)CCc2n[nH]c(=S)o2)c1`: the TGI in the assay on SNB-78 CNS, in the assay with DMS 114 small cell lung, with LXFL 529 NSCLC, in the assay with RXF-631 renal and in the assay on DLD-1 colon was greater than 100 µM in each case.

As for `O=C(O)c1oc2ccc([N+](=O)[O-])c3c2c1CCC3`, the TGI with SNB-78 CNS, in the assay with DMS 114 small cell lung, in the assay on LXFL 529 NSCLC and in the assay on DLD-1 colon was greater than 100 µM in each case.

As to `COc1ccccc1OCC(COC(=O)Nc1ccc(C)cc1)OC(=O)Nc1ccc(C)cc1` (centres undefined), the TGI in the assay on SNB-78 CNS is 91.6 µM; in the assay with DMS 114 small cell lung it was 29.3 µM; with LXFL 529 NSCLC, greater than 100 µM; in the assay with RXF-631 renal, 47.2 µM; in the assay with DLD-1 colon, 31.8 µM.

Consider `OCC(O)C(OC1OC(CO)C(O)C(O)C1O)c1nn(-c2ccc(F)cc2)c2nc3cc(Cl)c(Cl)cc3cc12` (centres undefined), for which the TGI with SNB-78 CNS, with DMS 114 small cell lung, in the assay on LXFL 529 NSCLC and with DLD-1 colon was greater than 100 µM throughout.

As to `Cc1ccc(NC(=O)CCC(=O)C(C#N)c2ccc(Cl)cc2)cc1C` (centres undefined), the TGI in the assay with SNB-78 CNS, in the assay on DMS 114 small cell lung, in the assay with LXFL 529 NSCLC and in the assay with DLD-1 colon was greater than 100 µM in each case.

On to `O=C(O)CNS(=O)(=O)c1ccc(NC(=O)c2cccc([N+](=O)[O-])c2)cc1`, for which the TGI in the assay on LXFL 529 NSCLC, in the assay on RXF-631 renal and with DLD-1 colon was greater than 100 µM throughout.

Take `COS(=O)CCOC(=O)c1ccccc1SSc1ccccc1C(=O)OCCS(=O)OC` (centres undefined): the TGI is greater than 100 µM in the assay with SNB-78 CNS, 34.1 µM in the assay on DMS 114 small cell lung, 47.2 µM with LXFL 529 NSCLC and greater than 100 µM in the assay with DLD-1 colon.

Regarding `C/C(=N\NC(=S)Nc1ccc([N+](=O)[O-])cc1S(=O)(=O)O)c1ccccn1`, the TGI in the assay with SNB-78 CNS, in the assay with DMS 114 small cell lung, with LXFL 529 NSCLC, in the assay on RXF-631 renal and with DLD-1 colon was greater than 100 µM each time.

Turning to `O=C(O)C(O)C(O)C1[O][Sb][O]C1CO` (centres undefined), the GI50 with SNB-78 CNS was greater than 81.3 µM; with MDA-N, greater than 100 µM; with DMS 114 small cell lung, greater than 43 µM; with HS 578T breast, greater than 100 µM; in the assay with LXFL 529 NSCLC it was greater than 89.2 µM; in the assay with PC-3 prostate it was greater than 100 µM. The GI50 with T-47D breast and in the assay on DLD-1 colon was greater than 100 µM each time. Moreover, the TGI is greater than 100 µM in the assay with SNB-78 CNS; greater than 100 µM in the assay with MDA-N; 98.3 µM with DMS 114 small cell lung; greater than 100 µM in the assay with HS 578T breast; greater than 100 µM in the assay on LXFL 529 NSCLC; greater than 100 µM in the assay on PC-3 prostate. Moreover, the TGI in the assay with T-47D breast and in the assay on DLD-1 colon was greater than 100 µM in each case.

On to `CC(C)c1cc2c(O)c(c1)Cc1cc(C(C)C)cc(c1O)Cc1cc(C(C)C)cc(c1O)Cc1cc(C(C)C)cc(c1O)Cc1cc(C(C)C)cc(c1O)Cc1cc(C(C)C)cc(c1O)C2`, for which the TGI in the assay on SNB-78 CNS, in the assay on DMS 114 small cell lung, in the assay on LXFL 529 NSCLC and with DLD-1 colon was greater than 100 µM in each case.

On to `Cc1cc(C(=O)NCCN(C)C)c2nc3ccccc3nc2c1`, for which the TGI with SNB-78 CNS was 47.2 µM; in the assay with DMS 114 small cell lung it was 14.4 µM; in the assay on LXFL 529 NSCLC, greater than 46.3 µM; in the assay on DLD-1 colon, 48.9 µM.

For the molecule `O=C(O)C1C2CC3CC2CC31` (centres undefined), the TGI with SNB-78 CNS, with DMS 114 small cell lung, in the assay with LXFL 529 NSCLC and in the assay on RXF-631 renal was greater than 100 µM each time.

`Cc1nc(Nc2ccc([N+](=O)[O-])cc2)sc1C(=O)/C=C/c1ccc(N(C)C)cc1`: the TGI in the assay with DMS 114 small cell lung, in the assay on RXF-631 renal and in the assay on DLD-1 colon was greater than 100 µM throughout.

Turning to `CN(C)/C(=N/C(=O)Nc1ccccc1)SCc1ccccc1`, the TGI in the assay on SNB-78 CNS, in the assay on DMS 114 small cell lung, in the assay with LXFL 529 NSCLC and in the assay with DLD-1 colon was greater than 100 µM throughout.

Take `C[Si](C)(C)[C@@]1([Se]c2ccccc2)CC[C@@H]1C(=O)c1ccccc1`: the TGI with SNB-78 CNS, with DMS 114 small cell lung, in the assay on LXFL 529 NSCLC, in the assay with RXF-631 renal and in the assay with DLD-1 colon was greater than 100 µM throughout.

Take `OCC1CC2CC1C1(C2)OCCO1` (centres undefined): the TGI with SNB-78 CNS, in the assay with DMS 114 small cell lung, in the assay with LXFL 529 NSCLC, with RXF-631 renal and with DLD-1 colon was greater than 100 µM in each case.

As for `S=C1OC2C3C4CC5C3C(O1)C1C5C4C21` (centres undefined), the TGI with SNB-78 CNS, in the assay with DMS 114 small cell lung, in the assay on LXFL 529 NSCLC and in the assay with DLD-1 colon was greater than 100 µM throughout.

On to `O=C1CCCc2c(O)ccc(O)c21`, for which the TGI in the assay with SNB-78 CNS is greater than 100 µM; with DMS 114 small cell lung, 74.9 µM; with LXFL 529 NSCLC, greater than 100 µM; in the assay with DLD-1 colon, greater than 100 µM.

As for `Cc1ccc(S(=O)(=O)ON=C2CC(c3ccccc3)N(C)C(c3ccccc3)C2)cc1` (centres undefined), the TGI with SNB-78 CNS is 64.7 µM and 52.8 µM; in the assay on DMS 114 small cell lung, 29.9 µM; with LXFL 529 NSCLC, 33.3 µM and 40.3 µM.

Take `N#CCc1nc2c(s1)C(=O)c1ccccc1C2=O`: the TGI with SNB-78 CNS amounted to 47.7 µM; in the assay on DMS 114 small cell lung, 20.1 µM; with LXFL 529 NSCLC, 28.2 µM; in the assay on RXF-631 renal, 42.7 µM.

On to `COC(=N)/C(=C1\OC(N)=C(c2ccc(Cl)cc2)C1=O)c1ccc(Cl)cc1`, for which the TGI in the assay with SNB-78 CNS, with DMS 114 small cell lung, in the assay with LXFL 529 NSCLC and in the assay on DLD-1 colon was greater than 100 µM throughout.

Regarding `COc1cc(C(N)=O)c(OC)c(OC)c1OC`, the TGI in the assay on SNB-78 CNS, in the assay on DMS 114 small cell lung, in the assay on LXFL 529 NSCLC, in the assay with RXF-631 renal and with DLD-1 colon was greater than 100 µM each time.

The values above are taken from PubChem BioAssay (NCI).
